According to ChEMBL document CHEMBL4251601 (Eur J Med Chem, 2018):

Experiments:
[1] = Half life in Sprague-Dawley rat at 5 mg/kg, po administered as single dose by LC-MS/MS analysis; type: ADME, organism-based; settings: in vivo
[2] = molecular target: Tyrosine-protein kinase JAK1 (Homo sapiens) (UniProt P23458); assay: Inhibition of recombinant human GST-tagged JAK1 expressed in baculovirus expression system at 0.1 uM by TR-FRET assay relative to control
[3] = molecular target: Tyrosine-protein kinase Lck (Homo sapiens) (UniProt P06239); assay: Inhibition of recombinant human full length His-tagged LCK expressed in baculovirus expression system at 0.1 uM by Z'-Lyte assay relative to control
[4] = molecular target: Leucine-rich repeat serine/threonine-protein kinase 2 (Homo sapiens) (UniProt Q5S007); assay: Inhibition of recombinant human GST-tagged LRRK2 (970 to 2527 residues) expressed in baculovirus expression system at 0.1 uM by TR-FRET assay relative to control
[5] = molecular target: Mitogen-activated protein kinase kinase kinase 14 (Homo sapiens, UniProt Q99558); assay: Inhibition of recombinant human GST-tagged NIK expressed in baculovirus expression system at 0.1 uM by Z'-Lyte assay relative to control
[6] = molecular target: MAP kinase-activated protein kinase 2 (Homo sapiens) (UniProt P49137); assay: Inhibition of recombinant human full length His-tagged MK2 expressed in Escherichia coli at 0.1 uM by Z'-Lyte assay relative to control
[7] = molecular target: Tyrosine-protein kinase Mer (Homo sapiens) (UniProt Q12866); assay: Inhibition of recombinant human GST-tagged MERTK (578 to 872 residues) expressed in baculovirus expression system at 0.1 uM by Z'-Lyte assay relative to control
[8] = molecular target: Misshapen-like kinase 1 (Homo sapiens) (UniProt Q8N4C8); assay: Inhibition of recombinant human GST-tagged MINK (1 to 320 residues) expressed in baculovirus expression system at 0.1 uM by Z'-Lyte assay relative to control
[9] = molecular target: Serine/threonine-protein kinase PAK 2 (Homo sapiens) (UniProt Q13177); assay: Inhibition of recombinant human full length GST-tagged PAK2 expressed in baculovirus expression system at 0.1 uM by Z'-Lyte assay relative to control
[10] = molecular target: Tyrosine-protein kinase receptor TYRO3 (Homo sapiens) (UniProt Q06418); assay: Inhibition of recombinant human GST-tagged TYRO3 cytoplasmic domain (451 to 890 residues) expressed in baculovirus expression system at 0.1 uM by Z'-Lyte assay relative to control
[11] = molecular target: CDK6/cyclin D3 (Homo sapiens) (UniProt P30281+Q00534); assay: Inhibition of recombinant full length human GST-tagged CDK6/Cyclin-D3 expressed in baculovirus expression system at 1 uM by TR-FRET assay relative to control
[12] = molecular target: Calcium/calmodulin-dependent protein kinase type II subunit beta (Homo sapiens) (UniProt Q13554); assay: Inhibition of recombinant full length human His-tagged CAMK2B expressed in baculovirus expression system at 1 uM by Z'-Lyte assay relative to control
[13] = molecular target: Serine/threonine-protein kinase Chk1 (Homo sapiens) (UniProt O14757); assay: Inhibition of recombinant full length human His-tagged CHK1 expressed in baculovirus expression system at 1 uM by Z'-Lyte assay relative to control
[14] = molecular target: Dual specificity tyrosine-phosphorylation-regulated kinase 3 (Homo sapiens) (UniProt O43781); assay: Inhibition of recombinant full length human GST-tagged DYRK3 expressed in baculovirus expression system at 1 uM by Z'-Lyte assay relative to control
[15] = molecular target: Fibroblast growth factor receptor 1 (Homo sapiens) (UniProt P11362); assay: Inhibition of recombinant human His-tagged FGFR1 cytoplasmic domain expressed in baculovirus expression system at 1 uM by Z'-Lyte assay relative to control
[16] = molecular target: G protein-coupled receptor kinase 4 (Homo sapiens) (UniProt P32298); assay: Inhibition of recombinant human full length GST-tagged GRK4 expressed in baculovirus expression system at 1 uM by Z'-Lyte assay relative to control
[17] = molecular target: Tyrosine-protein kinase ITK/TSK (Homo sapiens) (UniProt Q08881); assay: Inhibition of recombinant full length human GST-tagged ITK expressed in baculovirus expression system at 1 uM by TR-FRET assay relative to control
[18] = molecular target: Tyrosine-protein kinase JAK2 (Homo sapiens) (UniProt O60674); assay: Inhibition of recombinant human GST-tagged JAK2 expressed in baculovirus expression system at 1 uM by TR-FRET assay relative to control
[19] = molecular target: Tyrosine-protein kinase Lyn (Homo sapiens) (UniProt P07948); assay: Inhibition of recombinant human full length GST-tagged Lyn-A expressed in insect cells at 1 uM by Z'-Lyte assay relative to control
[20] = molecular target: Serine/threonine-protein kinase MARK1 (Homo sapiens) (UniProt Q9P0L2); assay: Inhibition of recombinant human full length GST-tagged MARK1 expressed in baculovirus expression system at 1 uM by Z'-Lyte assay relative to control
[21] = molecular target: RAF proto-oncogene serine/threonine-protein kinase (Homo sapiens) (UniProt P04049); assay: Inhibition of RAF1 (unknown origin) at 1 uM by TR-FRET assay relative to control
[22] = molecular target: Proto-oncogene tyrosine-protein kinase receptor Ret (Homo sapiens) (UniProt P07949); assay: Inhibition of recombinant human GST-tagged RET cytoplasmic domain (658 to 1114 residues) expressed in baculovirus expression system at 1 uM by Z'-Lyte assay relative to control
[23] = Volume of distribution at steady state in ICR mouse at 2 mg/kg, iv administered as single dose by LC-MS/MS analysis; type: ADME, organism-based; settings: in vivo, read-out: Vdss
[24] = AUC (0 to 24 hrs) in ICR mouse at 2 mg/kg, iv administered as single dose by LC-MS/MS analysis; type: ADME, organism-based; set-up: dose 2 mg/kg, time < 24 hr, route intravenous; settings: in vivo
[25] = AUC (0 to 24 hrs) in ICR mouse at 5 mg/kg, po administered as single dose by LC-MS/MS analysis; type: ADME, organism-based; set-up: time < 24 hr, dose 5 mg/kg, route oral; settings: in vivo
[26] = Unbound AUC (0 to 24 hrs) in CD-1 mouse plasma at 10 mg/kg, po administered as single dose by LC-MS/MS analysis; type: ADME, organism-based; settings: in vivo
Mus musculus [27] = assay: In vivo inhibition of CDK4/6 in nude mouse xenografted with human COLO205 cells assessed as reduction in Ser-780-phosphorylated Rb level in tumor administered via oral gavage after 24 hrs by Western blot analysis; type: functional, organism-based
U-87 MG [28] = assay: Antitumor activity against luciferase-fused human U87MG cells orthotopically xenografted in nude mouse assessed as tumor growth inhibition at 12.5 mg/kg, po qd for 4 weeks by bioluminescence imaging relative to control; type: functional, U-87MG ATCC; settings: 672 h, read-out: TGI
U-87 MG [29] = assay: Antitumor activity against luciferase-fused human U87MG cells orthotopically xenografted in nude mouse assessed as increase in mouse life span at 6.25 mg/kg, po qd for 5 weeks relative to control; type: functional, U-87MG ATCC; settings: 840 h
Mus musculus [30] = assay: Toxicity in nude mouse orthotopically xenografted with luciferase-fused human U87MG cells assessed as body weight loss at 3.125 to 25 mg/kg, po qd for 5 weeks; type: organism-based; settings: in vivo, 840 h

Sequence of Tyrosine-protein kinase ITK/TSK (Homo sapiens) (Q08881 whole entry): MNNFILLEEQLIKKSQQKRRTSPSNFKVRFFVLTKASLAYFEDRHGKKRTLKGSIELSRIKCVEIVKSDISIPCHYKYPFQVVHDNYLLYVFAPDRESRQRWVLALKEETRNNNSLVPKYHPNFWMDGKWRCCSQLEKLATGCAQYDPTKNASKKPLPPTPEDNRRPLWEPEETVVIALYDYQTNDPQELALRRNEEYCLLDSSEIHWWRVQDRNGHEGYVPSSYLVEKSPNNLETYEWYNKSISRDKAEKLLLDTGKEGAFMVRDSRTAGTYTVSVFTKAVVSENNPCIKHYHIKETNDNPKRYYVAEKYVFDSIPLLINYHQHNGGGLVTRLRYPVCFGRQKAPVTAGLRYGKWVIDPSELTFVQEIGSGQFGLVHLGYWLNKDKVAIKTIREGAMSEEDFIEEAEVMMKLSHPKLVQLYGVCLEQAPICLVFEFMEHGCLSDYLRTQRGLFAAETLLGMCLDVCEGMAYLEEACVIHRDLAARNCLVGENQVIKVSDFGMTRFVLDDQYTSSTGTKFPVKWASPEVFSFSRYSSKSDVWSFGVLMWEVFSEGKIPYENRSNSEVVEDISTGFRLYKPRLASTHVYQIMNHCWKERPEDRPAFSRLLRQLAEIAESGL
Sequence of Mitogen-activated protein kinase kinase kinase 14 (Q99558 whole entry, looked up): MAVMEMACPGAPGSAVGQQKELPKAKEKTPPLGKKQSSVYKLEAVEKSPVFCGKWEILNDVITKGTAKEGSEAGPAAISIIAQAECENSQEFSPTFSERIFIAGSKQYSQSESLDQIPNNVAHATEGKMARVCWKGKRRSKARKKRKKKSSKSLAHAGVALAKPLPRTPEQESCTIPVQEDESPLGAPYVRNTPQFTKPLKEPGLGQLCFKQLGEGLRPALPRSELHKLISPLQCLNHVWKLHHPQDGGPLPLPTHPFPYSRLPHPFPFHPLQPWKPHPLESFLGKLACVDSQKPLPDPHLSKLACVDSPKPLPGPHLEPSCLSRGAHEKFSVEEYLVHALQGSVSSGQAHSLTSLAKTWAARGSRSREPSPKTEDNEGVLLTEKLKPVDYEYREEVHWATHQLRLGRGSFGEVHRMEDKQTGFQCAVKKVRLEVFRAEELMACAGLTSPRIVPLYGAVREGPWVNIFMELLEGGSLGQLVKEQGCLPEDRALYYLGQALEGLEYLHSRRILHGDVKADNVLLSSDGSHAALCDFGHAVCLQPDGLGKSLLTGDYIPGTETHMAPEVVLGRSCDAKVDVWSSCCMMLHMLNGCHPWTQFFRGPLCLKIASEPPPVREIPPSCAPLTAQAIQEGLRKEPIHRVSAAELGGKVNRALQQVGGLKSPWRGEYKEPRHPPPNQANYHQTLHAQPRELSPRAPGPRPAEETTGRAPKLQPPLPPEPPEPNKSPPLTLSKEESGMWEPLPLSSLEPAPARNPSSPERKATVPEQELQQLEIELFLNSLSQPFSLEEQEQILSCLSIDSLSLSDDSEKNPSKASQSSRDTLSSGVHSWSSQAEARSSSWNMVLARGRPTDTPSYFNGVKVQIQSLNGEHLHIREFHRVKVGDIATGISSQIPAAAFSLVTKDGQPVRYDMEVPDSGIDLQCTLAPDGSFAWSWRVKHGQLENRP
Sequence of Tyrosine-protein kinase JAK1 (Homo sapiens) (P23458 whole entry): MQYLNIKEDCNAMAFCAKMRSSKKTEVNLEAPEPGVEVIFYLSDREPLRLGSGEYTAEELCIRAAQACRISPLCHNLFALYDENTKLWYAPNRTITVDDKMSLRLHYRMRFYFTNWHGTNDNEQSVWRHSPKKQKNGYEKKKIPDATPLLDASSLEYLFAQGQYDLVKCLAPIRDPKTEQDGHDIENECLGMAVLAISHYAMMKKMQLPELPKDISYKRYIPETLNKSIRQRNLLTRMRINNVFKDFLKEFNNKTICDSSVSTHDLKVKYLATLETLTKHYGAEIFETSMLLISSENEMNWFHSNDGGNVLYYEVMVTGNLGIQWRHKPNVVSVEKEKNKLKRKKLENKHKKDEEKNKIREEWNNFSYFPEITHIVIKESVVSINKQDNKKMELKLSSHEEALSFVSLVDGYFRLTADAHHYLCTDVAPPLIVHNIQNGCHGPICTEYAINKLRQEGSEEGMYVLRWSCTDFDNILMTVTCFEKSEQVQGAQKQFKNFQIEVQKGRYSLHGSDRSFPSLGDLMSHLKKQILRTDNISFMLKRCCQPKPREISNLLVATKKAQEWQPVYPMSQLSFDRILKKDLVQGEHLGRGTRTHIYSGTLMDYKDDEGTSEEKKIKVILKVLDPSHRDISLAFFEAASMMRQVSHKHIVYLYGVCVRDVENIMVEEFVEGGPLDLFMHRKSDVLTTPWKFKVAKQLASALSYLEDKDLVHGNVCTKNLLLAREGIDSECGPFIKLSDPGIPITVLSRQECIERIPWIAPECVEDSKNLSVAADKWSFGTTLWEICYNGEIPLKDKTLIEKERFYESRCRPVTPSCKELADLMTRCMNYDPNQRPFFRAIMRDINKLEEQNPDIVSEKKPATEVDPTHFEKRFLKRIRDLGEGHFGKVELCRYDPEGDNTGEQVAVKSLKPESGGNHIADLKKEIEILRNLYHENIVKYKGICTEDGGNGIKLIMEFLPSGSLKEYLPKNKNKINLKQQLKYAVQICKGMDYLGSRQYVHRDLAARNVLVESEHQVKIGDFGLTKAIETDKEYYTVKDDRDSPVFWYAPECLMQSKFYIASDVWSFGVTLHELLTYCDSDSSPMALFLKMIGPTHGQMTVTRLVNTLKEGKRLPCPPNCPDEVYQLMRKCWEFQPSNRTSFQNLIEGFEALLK
Sequence of G protein-coupled receptor kinase 4 (Homo sapiens) (P32298 whole entry, looked up): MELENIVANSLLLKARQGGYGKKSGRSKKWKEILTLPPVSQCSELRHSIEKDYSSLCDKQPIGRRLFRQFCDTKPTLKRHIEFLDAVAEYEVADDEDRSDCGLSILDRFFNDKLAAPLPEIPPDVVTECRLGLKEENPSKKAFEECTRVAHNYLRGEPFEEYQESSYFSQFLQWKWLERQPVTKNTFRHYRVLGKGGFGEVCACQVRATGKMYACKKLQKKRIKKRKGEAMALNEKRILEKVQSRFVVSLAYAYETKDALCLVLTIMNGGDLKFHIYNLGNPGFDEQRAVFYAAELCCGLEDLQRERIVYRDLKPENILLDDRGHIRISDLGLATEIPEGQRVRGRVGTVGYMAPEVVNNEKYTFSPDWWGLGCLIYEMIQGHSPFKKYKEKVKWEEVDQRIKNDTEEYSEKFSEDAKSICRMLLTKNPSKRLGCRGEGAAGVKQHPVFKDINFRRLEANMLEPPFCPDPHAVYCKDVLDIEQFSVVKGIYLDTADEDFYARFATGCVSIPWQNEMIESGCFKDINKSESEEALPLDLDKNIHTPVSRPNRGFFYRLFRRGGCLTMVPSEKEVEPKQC
Sequence of Serine/threonine-protein kinase PAK 2 (Homo sapiens) (Q13177 whole entry, the tested form may be a part): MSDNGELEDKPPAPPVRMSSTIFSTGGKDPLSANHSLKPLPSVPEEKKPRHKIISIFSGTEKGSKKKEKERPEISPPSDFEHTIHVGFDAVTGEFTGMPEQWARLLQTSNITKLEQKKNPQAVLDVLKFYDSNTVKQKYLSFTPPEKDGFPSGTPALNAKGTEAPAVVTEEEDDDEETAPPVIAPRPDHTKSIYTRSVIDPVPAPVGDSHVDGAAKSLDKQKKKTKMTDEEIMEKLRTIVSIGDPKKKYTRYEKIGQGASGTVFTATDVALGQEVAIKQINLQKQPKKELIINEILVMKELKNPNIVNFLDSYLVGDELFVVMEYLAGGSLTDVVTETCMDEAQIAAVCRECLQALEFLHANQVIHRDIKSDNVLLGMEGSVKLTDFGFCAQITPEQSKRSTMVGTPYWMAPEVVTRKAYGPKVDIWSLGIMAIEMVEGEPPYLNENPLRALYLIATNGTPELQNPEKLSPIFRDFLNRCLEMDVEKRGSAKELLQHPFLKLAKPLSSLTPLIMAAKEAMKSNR
Sequence of MAP kinase-activated protein kinase 2 (Homo sapiens) (P49137 whole entry, looked up, the tested form may be a part): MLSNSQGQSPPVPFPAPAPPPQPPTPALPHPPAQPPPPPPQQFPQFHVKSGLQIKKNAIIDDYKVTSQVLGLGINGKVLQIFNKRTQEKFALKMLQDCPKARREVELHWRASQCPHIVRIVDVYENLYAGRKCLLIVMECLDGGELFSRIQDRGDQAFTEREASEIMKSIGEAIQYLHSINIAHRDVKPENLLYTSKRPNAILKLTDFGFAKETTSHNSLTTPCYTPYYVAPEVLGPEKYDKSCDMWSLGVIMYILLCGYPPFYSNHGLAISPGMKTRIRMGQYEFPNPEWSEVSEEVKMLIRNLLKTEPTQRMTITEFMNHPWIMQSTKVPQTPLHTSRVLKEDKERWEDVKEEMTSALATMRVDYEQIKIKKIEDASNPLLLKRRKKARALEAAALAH
Sequence of RAF proto-oncogene serine/threonine-protein kinase (Homo sapiens) (P04049 whole entry, the tested form may be a part): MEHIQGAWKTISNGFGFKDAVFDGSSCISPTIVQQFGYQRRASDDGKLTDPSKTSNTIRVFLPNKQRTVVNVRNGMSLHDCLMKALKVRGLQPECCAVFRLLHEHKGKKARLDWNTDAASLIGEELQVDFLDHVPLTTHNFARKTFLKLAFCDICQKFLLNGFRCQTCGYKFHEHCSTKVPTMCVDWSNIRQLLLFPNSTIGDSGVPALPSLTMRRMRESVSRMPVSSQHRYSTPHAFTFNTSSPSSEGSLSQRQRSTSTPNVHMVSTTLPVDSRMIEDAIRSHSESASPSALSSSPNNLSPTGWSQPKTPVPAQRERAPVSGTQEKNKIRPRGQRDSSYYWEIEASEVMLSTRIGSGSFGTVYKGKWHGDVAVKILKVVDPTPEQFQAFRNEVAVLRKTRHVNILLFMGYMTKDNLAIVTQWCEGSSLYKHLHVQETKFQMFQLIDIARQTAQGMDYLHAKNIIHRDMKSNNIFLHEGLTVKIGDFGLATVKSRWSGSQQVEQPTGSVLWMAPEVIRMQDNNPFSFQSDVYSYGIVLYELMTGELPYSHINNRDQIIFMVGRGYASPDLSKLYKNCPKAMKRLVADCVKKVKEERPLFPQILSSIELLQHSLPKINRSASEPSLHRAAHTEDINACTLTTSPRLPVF

## CC1=Nc2c(F)cc(-c3nc(Nc4ccc(C5CCN(C)CC5)cn4)ncc3F)cc2C12CCCC2 [CROZBACICLIB]
[1]
  half-life: 8.5 h
[2]
  inhibition: 7%
[3]
  inhibition: 3%
[4]
  inhibition: 12%
[5]
  inhibition: 56%
[6]
  inhibition: 0%
[7]
  inhibition: -1%
[8]
  inhibition: 17%
[9]
  inhibition: 2%
[10]
  inhibition: 0%
[11]
  inhibition: 101%
[12]
  inhibition: 87%
[13]
  inhibition: 0%
[14]
  inhibition: 96%
[15]
  inhibition: 13%
[16]
  inhibition: 1%
[17]
  inhibition: 3%
[18]
  inhibition: 64%
[19]
  inhibition: 2%
[20]
  inhibition: 16%
[21]
  inhibition: 0%
[22]
  inhibition: 10%
[23]
  Vd: 17.8 L/kg
[24]
  AUC(0-t) at 24 h: 1140 ng·h/mL
[25]
  AUC(0-t) at 24 h: 2130 ng·h/mL
[26]
  fAUC: 63.45 ng·h/mL
Mus musculus [27]
  inhibition: Dose-dependent effect
U-87 MG [28]
  inhibition in vivo at 12.5 mg/kg: 92%
U-87 MG [29]
  ILS at 6.25 mg/kg: 45%
Mus musculus [30]
  Activity: Non-Toxic
